{"source": "patent US20240285552A1", "about": "(priority 2020, published 2024)", "test_system": "B.1.617.2 Delta Variant of SARS-CoV-2", "experiment": "microbe, parasite or virus in culture", "type": "cell-based", "note": "Residues, ends and D or L forms follow the SMILES beside them. *: point of attachment. Cbz = O=C(OCc1ccccc1)*; CH2F = FC*"}
{"smiles": "CC(C)C[C@H](NC(=O)OCc1ccccc1)C(=O)N[C@@H](CC(C)C)C(=O)N[C@@H](Cc1ccc(O)cc1)C(=O)CF", "note": "[Calpain Inhibitor IV] (Cbz-Leu-Leu-Tyr-CH2F)", "values": [{"measurement": "Conc. at Max. % Inhibition", "value": 0.45, "unit": "µM"}, {"measurement": "Max. Inhibition", "value": 105.43, "unit": "%"}, {"measurement": "IC50", "setting": "read-out: IC 50 against B.1.617.2 Delta Variant Infection-Induced CPE", "value": 124, "unit": "nM"}]}
